US7781591B2, “Substituted 3-cyanopyridines as protein kinase inhibitors” (Wyeth LLC, priority 2006, dated 2010)
Like-named read-outs stand apart in the source and are kept apart here.

Target: T1, human PKCθ full length enzyme (Homo sapiens, UniProt Q04759)
T1 construct: human PKCθ full length enzyme (Panvera Cat# P2996); purchased Panvera P2996
Experiment: PKCθ IMAP assay (fluorescence polarization)
Type: biochemical
Experimental: The reaction buffer was prepared by diluting the 5× stock reaction buffer and adding DTT to obtain a concentration of 3.0 mM. […] The final concentration of compound was 2× and 10% DMSO. DMSO was added to the rest of the master mix to increase the concentration to 10%. 10 μl of the master mix containing 10% DMSO was added to the rest of the wells on the plate except the 2nd column. 20 μl was transferred from the first column to the 2nd column. The compounds were serially diluted in 2:1 ratio starting from the 2nd column. A 2× ([…]) PKCθ solution was made in the reaction buffer. 10 μl of the PKCθ solution was added to every well to achieve these final concentrations: PKCθ—1 nM; ATP—6 μM; peptide—100 nM; DMSO—5%. Samples were incubated for 25 minutes at room temperature. The binding reagent was prepared by diluting the beads in 1× binding buffer to 800:1. 50 μl of the binding reagent was added to every well and incubated for 20 minutes. FP was measured using Envision2100 (PerkinElmer Life Sciences). Wells with no ATPs and wells with no enzymes were used as controls.

[1] = human PKCθ full length enzyme, IMAP, average value, read-out: IC50 PKCθ IMAP

T1 sequence (Q04759 whole entry): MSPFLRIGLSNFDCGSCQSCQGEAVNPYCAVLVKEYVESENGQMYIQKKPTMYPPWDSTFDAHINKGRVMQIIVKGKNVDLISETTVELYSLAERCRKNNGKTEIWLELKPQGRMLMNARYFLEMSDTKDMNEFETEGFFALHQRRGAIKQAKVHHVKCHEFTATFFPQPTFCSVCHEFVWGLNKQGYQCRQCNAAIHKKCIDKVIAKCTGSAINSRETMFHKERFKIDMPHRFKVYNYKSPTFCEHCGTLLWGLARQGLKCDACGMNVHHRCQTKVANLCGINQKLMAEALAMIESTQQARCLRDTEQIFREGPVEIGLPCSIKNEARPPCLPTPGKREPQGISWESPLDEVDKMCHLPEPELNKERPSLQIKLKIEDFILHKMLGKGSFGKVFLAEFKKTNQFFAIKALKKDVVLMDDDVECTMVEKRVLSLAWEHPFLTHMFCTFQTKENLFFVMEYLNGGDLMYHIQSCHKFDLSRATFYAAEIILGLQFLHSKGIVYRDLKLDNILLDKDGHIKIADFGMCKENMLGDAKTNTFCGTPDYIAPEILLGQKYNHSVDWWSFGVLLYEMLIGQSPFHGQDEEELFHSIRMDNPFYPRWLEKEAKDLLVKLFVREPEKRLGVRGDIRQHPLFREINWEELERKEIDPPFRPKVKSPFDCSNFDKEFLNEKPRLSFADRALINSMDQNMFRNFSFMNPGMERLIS

| Structure (SMILES) | IC50 [1] | IC50 |
| --- | --- | --- |
| COc1ccc(-c2cncc(C#N)c2Nc2ccc3[nH]ccc3c2)cc1-c1ccc(Cl)cc1 [Compound 190, 5-(4′-chloro-6-methoxybiphenyl-3-yl)-4-(1H-indol-5-ylamino)nicotinonitrile] | 180 nM |  |
| COc1ccc(-c2cncc(C#N)c2Nc2ccc3[nH]ccc3c2)cc1-c1ccc(C(=O)NC2CCCC2)cc1 [Compound 192, 5′-[5-cyano-4-(1H-indol-5-ylamino)pyridin-3-yl]-N-cyclopentyl-2′-methoxybiphenyl-4-carboxamide] | 280 nM |  |
| N#Cc1cncc(-c2ccc(OCc3ccccc3)cc2)c1Nc1ccc2[nH]ccc2c1 [Compound 195, 5-[4-(benzyloxy)phenyl]-4-(1H-indol-5-ylamino)nicotinonitrile] | 250 nM |  |
| CNC(=O)c1ccc(-c2cccc(-c3cncc(C#N)c3Nc3ccc4[nH]ccc4c3)c2)cc1 [Compound 196, 3′-[5-cyano-4-(1H-indol-5-ylamino)pyridin-3-yl]-N-methylbiphenyl-4-carboxamide] | 460 nM |  |
| CCCCNC(=O)c1ccc(-c2cccc(-c3cncc(C#N)c3Nc3ccc4[nH]ccc4c3)c2)cc1 [Compound 197, N-butyl-3′-[5-cyano-4-(1H-indol-5-ylamino)pyridin-3-yl]biphenyl-4-carboxamide] | 190 nM |  |
| CCC(CC)NC(=O)c1ccc(-c2cccc(-c3cncc(C#N)c3Nc3ccc4[nH]ccc4c3)c2)cc1 [Compound 198, 3′-[5-cyano-4-(1H-indol-5-ylamino)pyridin-3-yl]-N-(1-ethylpropyl)biphenyl-4-carboxamide] | 330 nM |  |
| N#Cc1cncc(-c2cccc(-c3ccc(C(=O)NCCO)cc3)c2)c1Nc1ccc2[nH]ccc2c1 [Compound 199, 3′-[5-cyano-4-(1H-indol-5-ylamino)pyridin-3-yl]-N-(2-hydroxyethyl)biphenyl-4-carboxamide] | 1300 nM |  |
| COCCNC(=O)c1ccc(-c2cccc(-c3cncc(C#N)c3Nc3ccc4[nH]ccc4c3)c2)cc1 [Compound 200, 3′-[5-cyano-4-(1H-indol-5-ylamino)pyridin-3-yl]-N-(2-methoxyethyl)biphenyl-4-carboxamide] | 190 nM |  |
| N#Cc1cncc(-c2cccc(-c3ccc(C(=O)NC4CC4)cc3)c2)c1Nc1ccc2[nH]ccc2c1 [Compound 201, 3′-[5-cyano-4-(1H-indol-5-ylamino)pyridin-3-yl]-N-cyclopropylbiphenyl-4-carboxamide] | 300 nM |  |
| N#Cc1cncc(-c2cccc(-c3ccc(C(=O)NC4CCCCC4)cc3)c2)c1Nc1ccc2[nH]ccc2c1 [Compound 202, 3′-[5-cyano-4-(1H-indol-5-ylamino)pyridin-3-yl]-N-cyclohexylbiphenyl-4-carboxamide] | 340 nM |  |
| N#Cc1cncc(-c2cccc(-c3ccc(C(=O)NCCN4CCCC4)cc3)c2)c1Nc1ccc2[nH]ccc2c1 [Compound 203, 3′-[5-cyano-4-(1H-indol-5-ylamino)pyridin-3-yl]-N-(2-pyrrolidin-1-ylethyl)biphenyl-4-carboxamide] | 290 nM |  |
| N#Cc1cncc(-c2cccc(-c3ccc(C(=O)N4CCCC4)cc3)c2)c1Nc1ccc2[nH]ccc2c1 [Compound 205, 4-(1H-indol-5-ylamino)-5-[4′-(pyrrolidin-1-ylcarbonyl)biphenyl-3-yl]nicotinonitrile] | 510 nM |  |
| N#Cc1cncc(-c2cccc(-c3ccc(C(=O)NCCCCO)cc3)c2)c1Nc1ccc2[nH]ccc2c1 [Compound 209, 3′-[5-cyano-4-(1H-indol-5-ylamino)pyridin-3-yl]-N-(4-hydroxybutyl)biphenyl-4-carboxamide] | 280 nM |  |
| N#Cc1cncc(-c2cccc(-c3ccc(C(=O)NCCCO)cc3)c2)c1Nc1ccc2[nH]ccc2c1 [Compound 210, 3′-[5-cyano-4-(1H-indol-5-ylamino)pyridin-3-yl]-N-(3-hydroxypropyl)biphenyl-4-carboxamide] | 2580 nM |  |
| CNCCNC(=O)c1ccc(-c2cccc(-c3cncc(C#N)c3Nc3ccc4[nH]ccc4c3)c2)cc1 [Compound 211, 3′-[5-cyano-4-(1H-indol-5-ylamino)pyridin-3-yl]-N-[2-(methylamino)ethyl]biphenyl-4-carboxamide] | 330 nM |  |
| N#Cc1cncc(-c2cccc(-c3ccc(C(=O)NCc4ccccn4)cc3)c2)c1Nc1ccc2[nH]ccc2c1 [Compound 212, 3′-[5-cyano-4-(1H-indol-5-ylamino)pyridin-3-yl]-N-(pyridin-2-ylmethyl)biphenyl-4-carboxamide] | 590 nM |  |
| N#Cc1cncc(-c2cccc(-c3ccc(C(=O)NCc4cccnc4)cc3)c2)c1Nc1ccc2[nH]ccc2c1 [Compound 213, 3′-[5-cyano-4-(1H-indol-5-ylamino)pyridin-3-yl]-N-(pyridin-3-ylmethyl)biphenyl-4-carboxamide] | 270 nM |  |
| N#Cc1cncc(-c2cccc(-c3ccc(C(=O)NCc4ccncc4)cc3)c2)c1Nc1ccc2[nH]ccc2c1 [Compound 214, 3′-[5-cyano-4-(1H-indol-5-ylamino)pyridin-3-yl]-N-(pyridin-4-ylmethyl)biphenyl-4-carboxamide] | 250 nM |  |
| COc1ccc(-c2cncc(C#N)c2N(C)c2ccc3[nH]ccc3c2)cc1OC [Compound 219, 5-(3,4-dimethoxyphenyl)-4-[1H-indol-5-yl(methyl)amino]nicotinonitrile] | 270 nM |  |
| COc1ccc(-c2cncc(C#N)c2-c2ccc3[nH]ccc3c2)cc1OC [Compound 221, 5-(3,4-dimethoxyphenyl)-4-(1H-indol-5-yl)nicotinonitrile] |  | 1750 nM |

Second part, led by results:

| IC50 [1] | Structure (SMILES) | IC50 |
| --- | --- | --- |
| 260 nM | CN1CCN(Cc2ccc(-c3cccc(-c4cncc(C#N)c4Nc4ccc5[nH]ccc5c4)c3)s2)CC1 [Compound 184, 4-(1H-indol-5-ylamino)-5-(3-{5-[(4-methylpiperazin-1-yl)methyl]-2-thienyl}phenyl)nicotinonitrile] |  |
| 500 nM | N#Cc1cncc(-c2cccc(-c3ccc(CN4CCOCC4)s3)c2)c1Nc1ccc2[nH]ccc2c1 [Compound 185, 4-(1H-indol-5-ylamino)-5-{3-[5-(morpholin-4-ylmethyl)-2-thienyl]phenyl}nicotinonitrile] |  |
| 140 nM | N#Cc1cncc(-c2cccc(-c3ccc(CN4CCCCC4)s3)c2)c1Nc1ccc2[nH]ccc2c1 [Compound 186, 4-(1H-indol-5-ylamino)-5-{3-[5-(piperidin-1-ylmethyl)-2-thienyl]phenyl}nicotinonitrile] |  |
| 110 nM | CN(C)Cc1ccc(-c2cccc(-c3cncc(C#N)c3Nc3ccc4[nH]ccc4c3)c2)s1 [Compound 187, 5-(3-{5-[(dimethylamino)methyl]-2-thienyl}phenyl)-4-(1H-indol-5-ylamino)nicotinonitrile] |  |
| 10 nM | COc1ccc(-c2cncc(C#N)c2Nc2ccc3[nH]ccc3c2)cc1Br [Compound 188, 5-(3-bromo-4-methoxyphenyl)-4-(1H-indol-5-ylamino)nicotinonitrile] |  |
| 30 nM | COc1ccc(-c2cncc(C#N)c2Nc2ccc3[nH]ccc3c2)cc1-c1cccs1 [Compound 189, 4-(1H-indol-5-ylamino)-5-[4-methoxy-3-(2-thienyl)phenyl]nicotinonitrile] |  |
| 320 nM | COc1ccc(-c2cncc(C#N)c2Nc2ccc3[nH]ccc3c2)cc1-c1cccc(Cl)c1 [Compound 191, 5-(3′-chloro-6-methoxybiphenyl-3-yl)-4-(1H-indol-5-ylamino)nicotinonitrile] |  |
| 250 nM | COc1ccc(-c2cncc(C#N)c2Nc2ccc3[nH]ccc3c2)cc1-c1ccccc1Cl [Compound 193, 5-(2′-chloro-6-methoxybiphenyl-3-yl)-4-(1H-indol-5-ylamino)nicotinonitrile] |  |
| 60 nM | CCCCNC(=O)c1ccc(-c2cccc(-c3cncc(C#N)c3Nc3cccc4[nH]ccc34)c2)cc1 [Compound 215, N-butyl-3′-[5-cyano-4-(1H-indol-4-ylamino)pyridin-3-yl]biphenyl-4-carboxamide] |  |
| 50 nM | N#Cc1cncc(-c2cccc(-c3ccc(C(=O)NCCO)cc3)c2)c1Nc1cccc2[nH]ccc12 [Compound 216, 3′-[5-cyano-4-(1H-indol-4-ylamino)pyridin-3-yl]-N-(2-hydroxyethyl)biphenyl-4-carboxamide] |  |
| 6 nM | COc1ccc(-c2cncc(C#N)c2Nc2ccc3[nH]ccc3c2C)cc1OC [Compound 218, 5-(3,4-dimethoxyphenyl)-4-[(4-methyl-1H-indol-5-yl)amino]nicotinonitrile] |  |
| 1 nM | Cc1c(Nc2c(C#N)cncc2-c2cc3ccccc3o2)ccc2[nH]ccc12 [Compound 222, 5-(1-benzofuran-2-yl)-4-[(4-methyl-1H-indol-5-yl)amino]nicotinonitrile] |  |
| 6 nM | N#Cc1cncc(-c2cc3cc(C=O)ccc3s2)c1Nc1cccc2[nH]ccc12 [Compound 223, 5-(5-formyl-1-benzothien-2-yl)-4-(1H-indol-4-ylamino)nicotinonitrile] |  |
| 4 nM | CN(C)Cc1ccc2sc(-c3cncc(C#N)c3Nc3cccc4[nH]ccc34)cc2c1 [Compound 224, 5-{5-[(dimethylamino)methyl]-1-benzothien-2-yl}-4-(1H-indol-4-ylamino)nicotinonitrile] |  |
| 5 nM | N#Cc1cncc(-c2ccc(O)cc2)c1Nc1cccc2[nH]ccc12 [Compound 225, 5-(4-hydroxyphenyl)-4-(1H-indol-4-ylamino)nicotinonitrile] |  |
| 3 nM | N#Cc1cncc(-c2ccc(OC[C@@H](N)Cc3ccccc3)cc2)c1Nc1cccc2[nH]ccc12 [Compound 226, 5-(4-{[(2S)-2-amino-3-phenylpropyl]oxy}phenyl)-4-(1H-indol-4-ylamino)nicotinonitrile] |  |
